Results: BigSolDB 2.1

O=C1Cc2cc(F)ccc2N1
solubility (mole fraction)
Details	278.15 K	283.15 K	288.15 K	293.15 K	298.15 K	303.15 K	308.15 K	313.15 K	318.15 K	323.15 K
in DMF	0.226	0.239	0.253	0.27	0.289	0.309	0.331	0.357	0.384	0.419
in THF	0.0838	0.0938	0.104	0.115	0.129	0.144	0.162	0.183	0.209	0.237
in acetone	0.0551	0.0618	0.0678	0.0764	0.085	0.096	0.108	0.123	0.14	0.16
in acetonitrile	0.02	0.0227	0.0261	0.03	0.0344	0.0399	0.0463	0.0537	0.0632	0.0748
in ethyl acetate	0.0149	0.0165	0.0185	0.0206	0.0234	0.0265	0.03	0.0343	0.0394	0.0459
in isopropanol	0.0197	0.0225	0.0263	0.0309	0.0367	0.0436	0.0506	0.0601	0.0717	0.0857
in methanol	0.0247	0.0296	0.0358	0.0422	0.0504	0.0594	0.0704	0.0841	0.0998	0.12
in n-hexane	0.000387	0.000492	0.000623	0.000784	0.000984	0.00125	0.00153	0.00196	0.00247	0.00311
in n-propanol	0.0293	0.0336	0.0388	0.0445	0.0513	0.0598	0.0688	0.0798	0.093	0.11
